The source made the active and inactive calls. No cut-off for these calls is given here.

One experiment deals with PC-3. Nature of the experiment: Cytotoxicity against human PC3 cells assessed as inhibition of cell proliferation after 3 days by MTT assay. It counts as functional, cell-based.
The test system of experiment [1] is MCF7. Nature of the experiment: Cytotoxicity against human MCF7 cells assessed as inhibition of cell proliferation after 3 days by MTT assay. Conditions: MCF7, 72 h. Format: functional, cell-based.
For experiment [2], the system named is MCF7. Kind of experiment: Cell cycle arrest in human MCF7 cells assessed as induction of preG1 apoptosis after 48 hrs by propidium iodide/RNase A staining based flow cytometry analysis. Format: functional.
Experiment [3] has as its target Vascular endothelial growth factor receptor 2 (Homo sapiens, UniProt P35968). Nature of the experiment: Inhibition of VEGFR2 in human MCF7 cells by horseradish peroxidase-coupled TMB substrate based ELISA. Format: cell-based.
Experiment [4] relates to MCF7. Kind of experiment: Induction of apoptosis in human MCF7 cells assessed as necrotic cells at after 48 hrs by Annexin V-FITC/propidium iodide staining based flow cytometric analysis (reference value: 0.41 %). It counts as functional.
Experiment [5] has as its system MCF7. Kind of experiment: Induction of apoptosis in human MCF7 cells assessed as early apoptotic cells after 48 hrs by Annexin V-FITC/propidium iodide staining based flow cytometric analysis (reference value: 1.56 %). It counts as functional.
Experiment [6] has as its system MCF7. Kind of experiment: Induction of apoptosis in human MCF7 cells assessed as late apoptotic cells after 48 hrs by Annexin V-FITC/propidium iodide staining based flow cytometric analysis (reference value: 0.3 %). Format: functional.
For experiment [7], the system named is MCF7. Kind of experiment: Induction of apoptosis in human MCF7 cells assessed as up regulation of caspase 9 expression by measuring caspase 9 level by ELISA (reference value: 1.223 ng/ml). It counts as functional.
For experiment [8], the system named is MCF7. Kind of experiment: Cell cycle arrest in human MCF7 cells assessed as accumulation at G2/M phase after 48 hrs by propidium iodide/RNase A staining based flow cytometry analysis. It counts as functional.

Chain of Vascular endothelial growth factor receptor 2 (P35968 whole entry): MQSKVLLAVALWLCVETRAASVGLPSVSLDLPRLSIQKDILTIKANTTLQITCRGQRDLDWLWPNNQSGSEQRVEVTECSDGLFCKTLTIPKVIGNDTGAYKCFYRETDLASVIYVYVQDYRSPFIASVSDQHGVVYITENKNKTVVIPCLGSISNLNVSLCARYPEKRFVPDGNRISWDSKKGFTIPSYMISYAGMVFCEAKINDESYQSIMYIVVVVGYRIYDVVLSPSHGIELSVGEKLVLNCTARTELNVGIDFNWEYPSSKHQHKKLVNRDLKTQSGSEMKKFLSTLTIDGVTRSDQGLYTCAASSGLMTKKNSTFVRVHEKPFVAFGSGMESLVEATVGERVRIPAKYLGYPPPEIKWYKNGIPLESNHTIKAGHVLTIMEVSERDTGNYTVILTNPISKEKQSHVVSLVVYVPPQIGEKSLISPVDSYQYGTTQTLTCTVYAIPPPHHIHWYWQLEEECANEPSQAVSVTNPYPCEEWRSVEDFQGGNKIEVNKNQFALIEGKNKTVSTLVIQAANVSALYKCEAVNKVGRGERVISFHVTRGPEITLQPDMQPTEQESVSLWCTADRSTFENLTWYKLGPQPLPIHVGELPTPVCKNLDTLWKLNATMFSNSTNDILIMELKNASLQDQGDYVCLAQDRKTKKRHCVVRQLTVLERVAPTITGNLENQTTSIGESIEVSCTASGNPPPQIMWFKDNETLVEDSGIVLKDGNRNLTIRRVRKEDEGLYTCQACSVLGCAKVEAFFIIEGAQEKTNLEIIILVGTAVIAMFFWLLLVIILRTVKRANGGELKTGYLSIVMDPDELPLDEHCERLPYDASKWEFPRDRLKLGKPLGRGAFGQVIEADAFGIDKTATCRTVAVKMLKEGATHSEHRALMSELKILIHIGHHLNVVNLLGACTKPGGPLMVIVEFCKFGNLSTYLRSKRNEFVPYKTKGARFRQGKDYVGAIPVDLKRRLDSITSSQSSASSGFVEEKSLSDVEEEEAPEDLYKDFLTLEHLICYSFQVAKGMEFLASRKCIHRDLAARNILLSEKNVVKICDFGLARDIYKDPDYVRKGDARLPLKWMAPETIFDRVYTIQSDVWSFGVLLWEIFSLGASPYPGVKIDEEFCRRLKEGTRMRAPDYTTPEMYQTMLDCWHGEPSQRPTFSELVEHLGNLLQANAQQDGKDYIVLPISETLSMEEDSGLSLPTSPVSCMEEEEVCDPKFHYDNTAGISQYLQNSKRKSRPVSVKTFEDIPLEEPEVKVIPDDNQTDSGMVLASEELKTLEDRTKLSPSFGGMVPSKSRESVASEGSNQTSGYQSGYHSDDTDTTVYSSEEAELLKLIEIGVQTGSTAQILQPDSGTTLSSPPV

Take `Cc1cc(=O)oc2cc(OCC(=O)NNC(=O)c3ccccc3)ccc12`: in the experiment with PC-3, the inhibition entry was “inactive”. The IC50 in the experiment with MCF7 [1] came to 7.89 µM.
The like results for `Cc1cc(=O)oc2cc(OCC(=O)NN3C(=O)c4ccccc4C3=O)ccc12` were, in that order, “inactive” and 14.7 µM.
The like results for `Cc1cc(=O)oc2cc(OCC(=O)NN(C(=O)c3ccncc3)C(=O)c3ccncc3)ccc12` were, in that order, “inactive” and 8.68 µM.
The matching figures for `CN1CCN(S(=O)(=O)c2ccc3oc(=O)c(Br)cc3c2)CC1`: “inactive” and 31.4 µM.
`COc1cc(OC)c(CNS(=O)(=O)c2ccc3oc(=O)c(Br)cc3c2)c(OC)c1`: the inhibition result in the experiment with PC-3 is “inactive”. Besides, the IC50 with MCF7 [1] was 5.76 µM.
Take `Cc1cc(=O)oc2cc(OCC(=O)NNCc3ccccc3)ccc12`: the inhibition entry in the experiment with PC-3 was “inactive”. The outcome in the experiment on MCF7 [2] and with MCF7 [8] was Active. Also, the 50% inhibitory concentration (IC50) stood at 0.36 µM in experiment [3] and 1.24 µM in the experiment with MCF7 [1]. Further, the Activity in the experiment on MCF7 [4] worked out at 1.92%; in the experiment with MCF7 [5], 6.72%; with MCF7 [6], 17.78%; with MCF7 [7] it was 8.015 ng/mL.
For `Cc1cc(=O)oc2ccc(NC(=O)c3ccccc3)cc12`, the inhibition result in the experiment with PC-3 is “inactive”. In addition, the IC50 in the experiment with MCF7 [1] was found to be 4.6 µM.
The like results for `Cc1cc(=O)oc2cc(OCC(=O)N/N=C/c3ccc(F)cc3)ccc12` were, in that order, “inactive” and 9.78 µM.
As to `CN[C@@H]1C[C@H]2O[C@@](C)([C@@H]1OC)n1c3ccccc3c3c4c(c5c6ccccc6n2c5c31)C(=O)NC4` [STAUROSPORINE], the Activity stood at 2.33% in the experiment with MCF7 [4], 8.16% with MCF7 [5], 11.27% in the experiment on MCF7 [6] and 8.41 ng/mL with MCF7 [7].
`O=c1oc2ccc(S(=O)(=O)N3CCCCC3)cc2cc1Br`: the inhibition result in the experiment with PC-3 was “inactive”. Moreover, the IC50 with MCF7 [1] stood at 2.07 µM.
The like results for `Cc1cc(=O)oc2cc(OCC(=O)NN3C(=O)C=CC3=O)ccc12` were, in that order, “inactive” and 2.11 µM.
The like results for `Cc1ccc(/C=N/NC(=O)COc2ccc3c(C)cc(=O)oc3c2)o1` were, in that order, “inactive” and 3.19 µM.
The matching figures for `O=c1oc2ccc(S(=O)(=O)Nc3nc4ccccc4[nH]3)cc2cc1Br`: “inactive” and 3.65 µM.
For `Cc1cc(=O)oc2cc(OCC(=O)NNC(=O)CN3CCN(C)CC3)ccc12`, in the experiment on PC-3, the inhibition entry is “inactive”. In addition, the IC50 in the experiment with MCF7 [1] was determined as 6.68 µM.
The like results for `O=c1oc2ccc(S(=O)(=O)N3CCOCC3)cc2cc1Br` were, in that order, “inactive” and 13.2 µM.
The like results for `Cc1cc(=O)oc2cc(OCC(=O)N/N=C/c3ccc(N(C)C)cc3)ccc12` were, in that order, “inactive” and 5.54 µM.
In the case of `Cc1cc(=O)oc2cc(OCC(=O)Nn3c(=O)[nH]c4ccccc4c3=O)ccc12`, the inhibition result in the experiment on PC-3 was “inactive”. Further, the IC50 in experiment [3] worked out at 0.66 µM; in the experiment on MCF7 [1] it was 1.65 µM.
On to `Cc1cc(=O)oc2cc(OCC(=O)NNC(=O)CN3CCOCC3)ccc12`, for which, in the experiment with PC-3, the inhibition entry was “inactive”. Further, the IC50 in the experiment on MCF7 [1] turned out to be 37.3 µM.
The like results for `O=c1oc2ccc(S(=O)(=O)NCc3ccc4c(c3)OCO4)cc2cc1Br` were, in that order, “inactive” and 7.79 µM.
The matching figures for `Cc1cc(=O)oc2ccc(N3C(=O)c4ccccc4C3=O)cc12`: “inactive” and 4.17 µM.
The matching figures for `Cc1cc(=O)oc2cc(OCC(=O)N/N=C/c3ccc([N+](=O)[O-])cc3)ccc12`: “inactive” and 5.59 µM.

The values above are taken from ChEMBL document CHEMBL4627262, “VEGFR-2 inhibiting effect and molecular modeling of newly synthesized coumarin derivatives as anti-breast cancer agents” (Bioorg Med Chem, 2020).
